Reference: ChEMBL document CHEMBL5120808, “6-Aryl-quinazolines as novel GABAB receptor positive allosteric modulators” (Bioorg Med Chem Lett, 2022)
The source made the active and inactive calls. The rule behind the calls is not given here.

How the values were obtained:
[1] = Metabolic stability in human assessed as parent compound remaining; assay type: ADME
[2] = Metabolic stability in mouse assessed as parent compound remaining; assay type: ADME
[3] = Metabolic stability in rat assessed as parent compound remaining; assay type: ADME
Mus musculus [4] = experiment: Potentiation of baclofen induced skeletal muscle relaxation in po dosed NMRI mouse assessed as effective dose by Litchfield-Wilcoxon method; assay type: functional
GABA-B receptor = GABA-B receptor (Homo sapiens, UniProt O75899+Q9UBS5); experiment: Positive allosteric modulation of GABA-B receptor (unknown origin) assessed as stimulation of [35S]GTPgammaS binding by [35S]GTPgammaS binding assay; assay type: functional
GABA-B receptor, sequence (Q9UBS5 whole entry): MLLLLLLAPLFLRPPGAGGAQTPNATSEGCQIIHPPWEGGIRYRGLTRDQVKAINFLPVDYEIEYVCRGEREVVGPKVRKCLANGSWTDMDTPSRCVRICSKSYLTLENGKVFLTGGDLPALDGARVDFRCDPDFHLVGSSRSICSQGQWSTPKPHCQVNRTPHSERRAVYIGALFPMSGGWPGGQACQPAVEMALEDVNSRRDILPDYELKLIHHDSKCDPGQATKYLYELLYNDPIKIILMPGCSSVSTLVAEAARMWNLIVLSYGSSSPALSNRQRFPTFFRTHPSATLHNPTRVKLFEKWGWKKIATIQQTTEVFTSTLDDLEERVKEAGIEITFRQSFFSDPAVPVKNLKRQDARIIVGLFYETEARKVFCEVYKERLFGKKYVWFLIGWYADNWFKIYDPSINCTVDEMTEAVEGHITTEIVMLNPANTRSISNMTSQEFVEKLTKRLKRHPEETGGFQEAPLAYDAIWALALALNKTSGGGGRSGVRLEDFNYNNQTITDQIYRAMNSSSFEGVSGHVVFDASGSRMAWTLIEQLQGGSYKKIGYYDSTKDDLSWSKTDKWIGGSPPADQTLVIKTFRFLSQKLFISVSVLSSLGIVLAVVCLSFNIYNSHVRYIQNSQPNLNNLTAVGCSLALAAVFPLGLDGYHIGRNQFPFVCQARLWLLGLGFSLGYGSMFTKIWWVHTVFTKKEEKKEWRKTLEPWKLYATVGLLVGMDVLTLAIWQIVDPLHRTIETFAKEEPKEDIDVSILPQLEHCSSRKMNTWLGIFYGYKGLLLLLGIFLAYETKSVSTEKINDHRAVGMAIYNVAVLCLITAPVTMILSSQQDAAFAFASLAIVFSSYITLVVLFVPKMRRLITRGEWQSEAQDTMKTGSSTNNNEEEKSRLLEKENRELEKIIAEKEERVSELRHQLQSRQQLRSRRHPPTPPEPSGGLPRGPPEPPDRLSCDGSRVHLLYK
GABA-B receptor, sequence (O75899 whole entry): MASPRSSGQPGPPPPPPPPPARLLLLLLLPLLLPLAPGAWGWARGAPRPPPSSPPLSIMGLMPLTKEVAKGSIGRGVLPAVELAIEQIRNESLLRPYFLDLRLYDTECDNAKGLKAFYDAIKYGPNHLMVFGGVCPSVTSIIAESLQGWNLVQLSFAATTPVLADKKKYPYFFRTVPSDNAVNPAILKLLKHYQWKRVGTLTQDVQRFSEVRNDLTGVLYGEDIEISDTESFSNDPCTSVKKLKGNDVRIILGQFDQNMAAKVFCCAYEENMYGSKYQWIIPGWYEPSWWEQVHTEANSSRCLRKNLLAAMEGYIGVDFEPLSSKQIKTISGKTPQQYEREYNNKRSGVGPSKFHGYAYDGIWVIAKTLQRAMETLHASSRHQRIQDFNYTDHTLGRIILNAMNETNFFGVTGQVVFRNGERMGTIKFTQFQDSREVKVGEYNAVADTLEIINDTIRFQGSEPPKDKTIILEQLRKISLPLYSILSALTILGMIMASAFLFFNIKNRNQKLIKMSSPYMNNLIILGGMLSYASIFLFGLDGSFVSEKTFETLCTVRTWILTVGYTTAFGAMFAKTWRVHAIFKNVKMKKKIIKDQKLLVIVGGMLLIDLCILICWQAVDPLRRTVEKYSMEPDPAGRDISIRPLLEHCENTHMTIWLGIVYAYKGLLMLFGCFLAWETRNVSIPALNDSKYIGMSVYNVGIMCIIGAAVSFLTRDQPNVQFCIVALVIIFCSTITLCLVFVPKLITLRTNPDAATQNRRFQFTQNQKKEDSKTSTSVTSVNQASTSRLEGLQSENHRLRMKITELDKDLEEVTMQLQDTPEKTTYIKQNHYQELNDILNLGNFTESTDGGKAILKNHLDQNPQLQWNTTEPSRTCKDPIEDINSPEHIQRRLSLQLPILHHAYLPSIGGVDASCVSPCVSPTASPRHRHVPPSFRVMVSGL

Mus musculus [5] = experiment: Potentiation of baclofen induced skeletal muscle relaxation in NMRI mouse at 3 to 30 mg/kg, po by traction test; assay type: functional, organism-based; settings: dose 3-30 mg/kg
Mus musculus [6] = experiment: Potentiation of baclofen induced loss of righting reflex in po dosed NMRI mouse assessed as effective dose by Litchfield-Wilcoxon method; assay type: functional
[7] = AUC (0 to 24 hrs) in NMRI mouse plasma at 10 mg/kg, po measured up to 24 hrs; assay type: ADME, organism-based; set-up: time < 24 hrs, dose 10 mg/kg, route po
[8] = Cmax in NMRI mouse plasma at 10 mg/kg, po measured up to 24 hrs; assay type: ADME, organism-based; set-up: dose 10 mg/kg, time < 24 hrs, route po
[9] = Cmax in NMRI mouse brain at 10 mg/kg, po measured up to 24 hrs; assay type: ADME, organism-based; set-up: time < 24 hrs, dose 10 mg/kg, route po
[10] = Tmax in NMRI mouse plasma at 10 mg/kg, po measured up to 24 hrs; assay type: ADME, organism-based
[11] = AUC (0 to 24 hrs) in NMRI mouse brain at 10 mg/kg, po measured up to 24 hrs; assay type: ADME, organism-based; set-up: time < 24 hrs, dose 10 mg/kg, route po
[12] = Half life in NMRI mouse brain at 10 mg/kg, po measured up to 24 hrs; assay type: ADME, organism-based
[13] = Tmax in NMRI mouse brain at 10 mg/kg, po measured up to 24 hrs; assay type: ADME, organism-based

Stability [1] [%] | Stability [2] [%] | Stability [3] [%] | EC50 (GABA-B receptor) [nM] | SMILES | other results
58 | 63 | 67 | 90 | FC(F)(F)c1cccc(-c2ccc3nc(Cl)nc(N[C@@H]4C[C@H]5CC[C@@H]4C5)c3c2)c1 | 
75 | 41 | 41 | 142 | Cc1nc(N[C@@H]2C[C@H]3CC[C@@H]2C3)c2cc(-c3cccc(C(F)(F)F)c3)ccc2n1 | 
66 | 66 | 77 | 771 | Cc1nc(N[C@@H]2C[C@H]3CC[C@@H]2C3)c2cc(-c3ccc(C(F)(F)F)cc3)ccc2n1 | 
73 | 95 | 84 | 637 | FC(F)(F)c1ccc(-c2ccc3nc(Cl)nc(N[C@@H]4C[C@H]5CC[C@@H]4C5)c3c2)cc1 | Activity (Mus musculus [5]): Active; ED50 (Mus musculus [6]): 2.9 mg/kg; AUC(0-t) at 24 h [7]: 4660 ng·h/mL; Cmax [8]: 586 ng/mL; Cmax [9]: 100 ng/mL; ED50 (Mus musculus [4]): 8.1 mg/kg; Tmax [10]: 1 h; AUC(0-t) at 24 h [11]: 852 ng·h/mL; half-life [12]: 8.94 h; Tmax [13]: 2 h
50 | 27 | 23 | 199 | Cc1nc(N[C@@H]2C[C@H]3CC[C@@H]2C3)c2cc(-c3cccc(Cl)c3)ccc2n1 | 

Continued, compound first:

SMILES | Stability [1] [%] | Stability [2] [%] | Stability [3] [%] | EC50 (GABA-B receptor) [nM] | other results
Clc1cc(Cl)cc(-c2ccc3nc(Cl)nc(N[C@@H]4C[C@H]5CC[C@@H]4C5)c3c2)c1 | 85 | 62 | 76 |  | 
Clc1ccc(-c2ccc3nc(Cl)nc(N[C@@H]4C[C@H]5CC[C@@H]4C5)c3c2)cc1 | 46 | 40 | 85 | 208 | ED50 (Mus musculus [4]): 25.6 mg/kg
Cc1nc(N[C@@H]2C[C@H]3CC[C@@H]2C3)c2cc(-c3cc(Cl)cc(Cl)c3)ccc2n1 | 62 | 44 | 37 | 97 | 
Cc1nc(N[C@@H]2C[C@H]3CC[C@@H]2C3)c2cc(-c3ccc(Cl)c(Cl)c3)ccc2n1 | 56 | 74 | 63 | 419 | 
Cc1nc(N[C@@H]2C[C@H]3CC[C@@H]2C3)c2cc(-c3ccccc3Cl)ccc2n1 | 57 | 23 | 31 | 496 | 
Cc1ncc(-c2ccc(C(F)(F)F)cc2)c(N[C@@H]2C[C@H]3CC[C@@H]2C3)n1 | 65 | 42 | 24 |  | 
Fc1ccc(-c2ccc3nc(Cl)nc(N[C@@H]4C[C@H]5CC[C@@H]4C5)c3c2)cc1 | 47 | 53 | 36 | 294 | 
Cc1nc(N[C@@H]2C[C@H]3CC[C@@H]2C3)c2cc(-c3ccc(Cl)cc3)ccc2n1 | 47 | 39 | 49 | 444 | ED50 (Mus musculus [4]): 12.7 mg/kg
Clc1nc(N[C@@H]2C[C@H]3CC[C@@H]2C3)c2cc(-c3ccc(Cl)c(Cl)c3)ccc2n1 | 69 | 67 | 59 | 341 | 
